Measured values reported in patent US20080234327A1, “DIHYDROINDAZOLE COMPOUNDS USEFUL IN TREATING IRON DISORDERS” (XENON PHARMACEUTICALS INC., priority 2007, published 2008).

Key:
[1] = biological target: T1, DMT1 (Homo sapiens, UniProt P49281); assay: DMT1 activity assay (in vitro); assay type: cell-based; conditions: inhibition of DMT1; read-out: IC50 Activity Level
T1 sequence (P49281 1-568): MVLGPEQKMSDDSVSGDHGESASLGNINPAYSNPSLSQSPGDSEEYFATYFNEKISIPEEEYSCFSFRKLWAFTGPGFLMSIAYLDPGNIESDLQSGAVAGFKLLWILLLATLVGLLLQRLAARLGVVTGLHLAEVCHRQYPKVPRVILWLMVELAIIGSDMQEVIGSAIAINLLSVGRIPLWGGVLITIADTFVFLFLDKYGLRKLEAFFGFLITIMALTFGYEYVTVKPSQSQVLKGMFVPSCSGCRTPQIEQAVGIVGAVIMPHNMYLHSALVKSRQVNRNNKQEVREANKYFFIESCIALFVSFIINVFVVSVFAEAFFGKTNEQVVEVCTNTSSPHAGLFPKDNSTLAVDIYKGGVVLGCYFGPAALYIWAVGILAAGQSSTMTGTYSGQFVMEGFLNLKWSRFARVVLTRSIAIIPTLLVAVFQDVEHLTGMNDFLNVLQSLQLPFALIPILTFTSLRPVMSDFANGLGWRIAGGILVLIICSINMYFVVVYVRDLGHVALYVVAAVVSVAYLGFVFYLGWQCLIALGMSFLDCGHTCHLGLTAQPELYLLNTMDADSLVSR
Source text: One such protocol involves the screening of chemical agents for ability to modulate the activity of DMT1 thereby identifying it as a modulating agent. The in vitro activity of DMT1 can be measured in cell based assays by either directly measuring iron flux (using a radioactively labelled iron ^55Fe) or by measuring the fluorescence of a cell permeable iron fluorophore such as calcein. Stable cell lines overexpressing DMT1 are exposed to ^55Fe or loaded with calcein and then compound is applied. […] Alternatively, in another format electrophysiological techniques can be used to measure the current or iron or other metals traversing the cell membrane with DMT1 in a Xenopus oocyte or other cell based system (Gunshin et al., Nature, 1997, 31; 388(6641):482-8).
This example discloses various in vitro assay for testing and profiling test agents against DMT1 stably expressed in cells of either an endogenous or recombinant origin. These assays can use stable cell lines overexpressing DMT1 or intestinal cells and intestinal tissue expressing endogenous DMT1. DMT1 function could also be assessed in other cell types that express DMT1. Of greatest relevance would be the erythrocytes (e.g. K562 cells) or hepatocytes (e.g. […]).
DMT1 function can be assessed in a number of ways, including monitoring fluorescence changes of an iron fluorophore (e.g. calcein), monitoring uptake of radiolabelled iron (^55Fe or ^59Fe) (Picard et al., J. Biol. Chem., 2000, 275(46):35738-45 and Wetli et al., Chem. Biol. 2006 September; 13(9):965-72), or by assessing the current or transport of iron and other metals into the cells or tissues using standard electrophysiological techniques (Gunshin et al., Nature, 1997, 388(6641):482-8.).
Variations of these assays involve alterations of incubation times, the iron status of the cells and tissues (which may be modulated by chemical chelators or by harvesting from iron deficient animals), the metal cation detected and the pH of the reaction can generally be made by conventional techniques known to those skilled in the art.

SMILES | IC50 [1] [µM] | melting point [°C]
N#Cc1ccc(-c2ccc3c(c2)CCc2nn(-c4ccccn4)c(O)c2-3)cc1 [Example 1.9, 4-(1-hydroxy-2-pyridin-2-yl-4,5-dihydro-2H-benzo[e]indazol-7-yl)-benzonitrile] | ≥ 1 | 274 to 275
Oc1c2c(nn1-c1ncccc1C(F)(F)F)CCc1ccccc1-2 [Example 1.12, 2-(3-(trifluoromethyl)pyridin-2-yl)-4,5-dihydro-2H-benzo[e]indazol-1-ol] | ≥ 1 | 174 to 175
Cc1ccc2nc(-n3nc4c(c3O)-c3ccccc3CC4)sc2c1 [Example 4.4, 2-(6-methylbenzo[d]thiazol-2-yl)-4,5-dihydro-2H-benzo[e]indazol-1-ol] |  | 218 to 219
Oc1c2c(nn1-c1ccccn1)CCc1cc(-c3ccc4c(c3)OCO4)ccc1-2 [Example 1.8, 7-benzo[1,3]dioxol-5-yl-2-pyridin-2-yl-4,5-dihydro-2H-benzo[e]indazol-1-ol] | 0.1 to 1 | 205 to 206
CC(C)(C)c1csc(-n2nc3c(c2O)-c2ccccc2CC3)n1.Cl [Example 5, 2-(4-tert-butylthiazol-2-yl)-4,5-dihydro-2H-benzo[e]indazol-1-ol hydrochloride] | ≥ 1 | > 250
COc1ccc(-c2ccc3c(c2)CCc2nn(-c4ccccn4)c(O)c2-3)cc1 [Example 1.7, 7-(4-methoxyphenyl)-2-pyridin-2-yl-4,5-dihydro-2H-benzo[e]indazol-1-ol] |  | 159 to 160
Cc1ccc(-c2ccc3c(c2)CCc2nn(-c4ccccn4)c(O)c2-3)cc1 [Example 1.6, 2-pyridin-2-yl-7-p-tolyl-4,5-dihydro-2H-benzo[e]indazol-1-ol] |  | 177 to 178
Oc1c2c(nn1-c1ccccn1)CCc1ccccc1-2 [Example 1, 2-pyridin-2-yl-4,5-dihydro-2H-benzo[e]indazol-1-ol] |  | 145 to 146
COc1ccc2c(c1)-c1c(nn(-c3ccccn3)c1O)CC2 [Example 1.3, 8-methoxy-2-pyridin-2-yl-4,5-dihydro-2H-benzo[e]indazol-1-ol] | ≥ 1 | 116 to 117
N#Cc1ccc2c(c1)CCc1nn(-c3ccccn3)c(O)c1-2 [Example 1.4, 1-hydroxy-2-pyridin-2-yl-4,5-dihydro-2H-benzo[e]indazole-7-carbonitrile] |  | 232 to 233
O=C(O)c1ccc2nc(-n3nc4c(c3O)-c3ccccc3CC4)sc2c1 [Example 4.6, 2-(1-hydroxy-4,5-dihydro-2H-benzo[e]indazol-2-yl)benzo[d]thiazole-6-carboxylic acid] |  | > 280
Cc1cccc2sc(-n3nc4c(c3O)-c3ccccc3CC4)nc12 [Example 4.5, 2-(4-methylbenzo[d]thiazol-2-yl)-4,5-dihydro-2H-benzo[e]indazol-1-ol] |  | 224 to 225
Oc1c2c(nn1-c1nc3ccccc3[nH]1)CCc1ccccc1-2 [Example 6, 2-(1H-benzo[d]imidazol-2-yl)-4,5-dihydro-2H-benzo[e]indazol-1-ol] |  | 205 to 206
COc1ccc2c(c1)CCc1nn(-c3ccccn3)c(O)c1-2 [Example 1.2, 7-methoxy-2-pyridin-2-yl-4,5-dihydro-2H-benzo[e]indazol-1-ol] |  | 139 to 140
Oc1c2c(nn1-c1ccc(C(F)(F)F)cn1)CCc1ccccc1-2 [Example 1.10, 2-(5-(trifluoromethyl)pyridin-2-yl)-4,5-dihydro-2H-benzo[e]indazol-1-ol] | ≥ 1 | 158 to 159
COc1ccc2nc(-n3nc4c(c3O)-c3ccccc3CC4)sc2c1 [Example 4.2, 2-(6-methoxybenzo[d]thiazol-2-yl)-4,5-dihydro-2H-benzo[e]indazol-1-ol] |  | 204 to 205
Oc1c2c(nn1-c1cc(C(F)(F)F)ccn1)CCc1ccccc1-2 [Example 1.11, 2-(4-(trifluoromethyl)pyridin-2-yl)-4,5-dihydro-2H-benzo[e]indazol-1-ol] | 0.1 to 1 | 161 to 162
O=[N+]([O-])c1ccc(-n2nc3c(c2O)-c2ccccc2CC3)nc1 [Example 1.13, 2-(5-nitropyridin-2-yl)-4,5-dihydro-2H-benzo[e]indazol-1-ol] | 0.1 to 1 | 226 to 227
Oc1c2c(nn1-c1nc3ccc(F)cc3s1)CCc1ccccc1-2 [Example 4.3, 2-(6-fluorobenzo[d]thiazol-2-yl)-4,5-dihydro-2H-benzo[e]indazol-1-ol] |  | 246 to 247
Oc1c2c(nn1-c1ccccn1)CCCc1ccccc1-2 [Example 7, 2-pyridin-2-yl-2,4,5,6-tetrahydro-2,3-diaza-benzo[e]azulen-1-ol] | 0.1 to 1 | 80 to 81
Cc1ccc(-n2nc3c(c2O)-c2ccccc2CC3)nc1 [Example 2, 2-(5-methylpyridin-2-yl)-4,5-dihydro-2H-benzo[e]indazol-1-ol] | 0.1 to 1 | 156 to 157
Oc1c2c(nn1-c1ccccn1)CCc1cc(Br)ccc1-2 [Example 1.1, 7-bromo-2-pyridin-2-yl-4,5-dihydro-2H-benzo[e]indazol-1-ol] |  | 164 to 165
COc1ccc2c(c1)CCc1nn(-c3nc4ccccc4s3)c(O)c1-2 [Example 4.1, 2-(benzo[d]thiazol-2-yl)-7-methoxy-4,5-dihydro-2H-benzo[e]indazol-1-ol] | 0.1 to 1 | 182 to 183
[O-][n+]1ccccc1-n1nc2c(c1O)-c1ccccc1CC2 [Example 3, 2-(1-hydroxy-4,5-dihydro-2H-benzo[e]indazol-2-yl)pyridine 1-oxide] |  | 155 to 156
Oc1c2c(nn1-c1nc3ccccc3s1)CCc1ccccc1-2 [Example 4, 2-(benzo[d]thiazol-2-yl)-4,5-dihydro-2H-benzo[e]indazol-1-ol] |  | 234 to 235
